# Test results published in US20230331679A1, “NAPHTHALENE MONOIMIDE COMPOUNDS AND METHODS THEREOF” (JAWAHARLAL NEHRU CENTRE FOR ADVANCED SCIENTIFIC RESEARCH, priority 2020, published 2023).
# Tests used:
# APP/PS1 and WT mice = assay: Novel object identification (NOI) test; assay type: in vivo
# Experimental: In OF test, all the experimental mice were individually allowed to explore a novel platform (45 X 45 cm) and their locomotion activity was monitored for 5 min (Sony HDRCX405 camera) and analyzed using the smart 3 software (Panlab; FIG. 16A). […] The anxiety behaviors of TGR63 treated mice were assessed by the time spent and the entries in the center zone (20 X 20 cm) of OF arena. […] Next, the effect of TGR63 on memory processing, viz., acquisition, consolidation and retrieval were evaluated through NOI test, which has been widely used as a tool to study the neurobiology of memory using the natural tendency of rodents to explore novel objects more than the familiar objects. All the experimental mice were familiarized with two identical objects (familiar objects) in a known habituated arena and allowed to explore a novel and familiar object after 24 and 48 h of familiarization (FIG. 16E). The exploration time with each object was measured using a stopwatch, and the discrimination index (DI) was determined using the formula, (time exploring the novel object - time exploring the familiar) / (time exploring novel + familiar) * 100. […] Similarly, the calculated DI after 48 h was lowest (-7) for AD vehicle cohort compared to both vehicle and TGR63 treated WT cohorts (+43 and +45, respectively) (FIG. 16G). […] The blocking of essential synaptic receptors (NMDA and AMPA) by Aβ aggregation species leading to synaptic dysfunction followed by impairment in hippocampal LTP formation. […] TGR63 treatment ameliorates the memory impairment in APP/PS 1 mice by reducing the toxic amyloid burden from the brain under progressive AD conditions.
# [1] = Serum stability under in vitro conditions (absorbance); assay type: in vitro ADME; details: WT mouse blood serum, 0.5, 1, 2 and 6 h at 37° C.
# [2] = Octanol/water partition coefficient (LogP); assay type: physicochemical
# Experimental: Pharmacokinetics of TGR63 in wild-type (WT) mice was performed to assess its in vivo efficacy. The lethal dose 50 (LD50) of TGR63 was determined in WT mice through intraperitoneal (IP) injection following the Organisation for Economic Cooperation and Development (OECD) guidelines. […] FIG. 7A illustrates the calculation of lethal dose 50% (LD50) of TGR63 through intraperitoneal administration and is represented as table of experimental details and the final observation was done on 14th day. FIG. 7B illustrates the mortality (%) plotted against TGR63 concentration and calculation of LD50. Twenty-five WT mice were segregated in five different groups (G1-5, N= 5 per group) and administered with varying doses of TGR63 (1.7, 5.5, 17.5 56.0 and 179.0 mg/kg body weight, respectively) through IP injection and their survival was monitored for 14 days. The serum stability and blood-brain barrier (BBB) crossing ability of TGR63 were assessed through matrix-assisted laser desorption ionization (MALDI) mass spectrometry analysis of blood and brain samples of vehicle and TGR63 treated mice. TGR63 and vehicle were administrated in WT mice and sacrificed after 1 and 24 h to collect the blood for MALDI mass analysis FIG. 8 depicts the MALDI mass analysis of vehicle (FIG. 8A) and TGR63 treated mice blood serum after 1 h (FIG. 8B) and 24 h (FIG. 8C) of administration. The presence of TGR63 in blood was confirmed from the mass analysis even after 24 h. […] TGR63 was incubated in PBS (10 mM, pH= 7.4) and blood serum in WT mice for different time intervals (0.5, 1, 2 and 6 h) at 37° C. to evaluate the serum stability under in vitro conditions. […] FIG. 9 depicts the Serum stability of TGR63 under in vitro conditions. TGR63 was incubated in PBS (10 mM, pH= 7.4) and blood serum (WT mouse) for different time (0.5, 1, 2 and 6 h) at 37° C. […] The partition coefficient (P), a valuable physical property was calculated to predict the BBB permeability. […] FIG. 10 depicts the calculation of LogP. […] The calculated positive logP value predicts the possible BBB crossing ability for TGR63. […]
# WT mice = assay: LD50 by intraperitoneal injection (OECD guidelines); assay type: in vivo; details: IP injection, survival monitored 14 days
# Experimental: Pharmacokinetics of TGR63 in wild-type (WT) mice was performed to assess its in vivo efficacy. The lethal dose 50 (LD50) of TGR63 was determined in WT mice through intraperitoneal (IP) injection following the Organisation for Economic Cooperation and Development (OECD) guidelines. […] FIG. 7A illustrates the calculation of lethal dose 50% (LD50) of TGR63 through intraperitoneal administration and is represented as table of experimental details and the final observation was done on 14th day. FIG. 7B illustrates the mortality (%) plotted against TGR63 concentration and calculation of LD50. Twenty-five WT mice were segregated in five different groups (G1-5, N= 5 per group) and administered with varying doses of TGR63 (1.7, 5.5, 17.5 56.0 and 179.0 mg/kg body weight, respectively) through IP injection and their survival was monitored for 14 days. The serum stability and blood-brain barrier (BBB) crossing ability of TGR63 were assessed through matrix-assisted laser desorption ionization (MALDI) mass spectrometry analysis of blood and brain samples of vehicle and TGR63 treated mice. […] The partition coefficient (P), a valuable physical property was calculated to predict the BBB permeability. […] The calculated positive logP value predicts the possible BBB crossing ability for TGR63. […]
smiles,measurement,setting,value
"CN(C)c1ccc(C#Cc2ccc3c4c(cccc24)C(=O)N(CC[N+](C)(C)C)C3=O)cc1 [TGR63, 2-(6-((4-(dimethylamino)phenyl)ethynyl)-1,3-dioxo-1H-benzo[de]isoquinolin-2(3H)-yl)-N,N,N-trimethylethan-1-aminium]",discrimination index (DI),"APP/PS1 and WT mice; AD TGR63 cohort, after 24 h, AD vehicle -3",+43
same,discrimination index (DI),"APP/PS1 and WT mice; AD TGR63 cohort, after 48 h, AD vehicle -7",+38
same,reduction of DI at 48 h compared to 24 h,APP/PS1 and WT mice; TGR63 treated WT and AD cohorts,~ 5 units of DI
same,discrimination index (DI),"APP/PS1 and WT mice; WT TGR63 cohort, after 24 h, WT vehicle +49",+50
same,discrimination index (DI),"APP/PS1 and WT mice; WT TGR63 cohort, after 48 h, WT vehicle +43",+45
same,stability in blood serum (normalized absorbance at 450 nm),[1],confirmed the stability of TGR63 in blood serum
same,logP,[2]; calculated from octanol and water layer concentrations,0.1
same,concentration in octanol layer,[2]; octanol/water partition,21.82 µM
same,concentration in water layer,[2]; octanol/water partition,18.18 µM
same,LD50,WT mice,~ 157.9 mg/kg body weight
